Results taken from patent US20220313656A1, “NEW CLASS OF ANTIBIOTICS HAVING LOW MIC-VALUES TOWARDS DIFFERENT STRAINS OF BACTERIA” (priority 2019, published 2022).

Columns and labels:
[1] = tested on: S. aureus CC398; assay: MIC, serial dilution method (CLSI); type: cell-based, Staphylococcus aureus; conditions: Staphylococcus aureus, MRSA, 24 h; read-out: MIC
Experimental: (§1) These inoculums were each in diluted 1:100 in Müller Hinton (MH) broth (Sigma, Copenhagen, Denmark). From the diluted inoculums 100 μl was transferred to each well in a 96-well plate and mixed with the compound to be MIC determined. The plate was incubated for 24 hours at 37° C. (without shaking). The MIC value was determined as the lowest concentration in which no bacterial growth could be visually detected. All MIC determinations were done in duplicates. […] Since all derivatives are new, no control strains (with reference MIC values) were available.

[2] = tested on: S. aureus USA300; assay: MIC, serial dilution method (CLSI); type: cell-based, Staphylococcus aureus; conditions: Staphylococcus aureus, USA300, 24 h; read-out: MIC
Experimental: as §1

[3] = tested on: E. faecalis; assay: MIC, serial dilution method (CLSI); type: cell-based, Enterococcus faecalis; conditions: Enterococcus faecalis, 24 h; read-out: MIC
Experimental: as §1

[4] = tested on: E. coli APEC O2; assay: MIC, serial dilution method (CLSI); type: cell-based, Escherichia coli; conditions: Escherichia coli, APECO2, 24 h; read-out: MIC
Experimental: as §1

[5] = tested on: Staphylococus pseudintermedius; assay: MIC, serial dilution method (CLSI); type: cell-based, Staphylococcus pseudintermedius; conditions: Staphylococcus pseudintermedius, 24 h; read-out: MIC
Experimental: as §1

[6] = tested on: E. faecium; assay: MIC, serial dilution method (CLSI); type: cell-based, Enterococcus faecium; conditions: Enterococcus faecium, 24 h; read-out: MIC
Experimental: as §1

[7] = tested on: Bacillus cereus; assay: MIC, serial dilution method (CLSI); type: cell-based; conditions: 24 h, read-out: MIC
Experimental: as §1

[8] = tested on: Listeria monocytogenes; assay: MIC, serial dilution method (CLSI); type: cell-based; conditions: 24 h, read-out: MIC
Experimental: as §1

[9] = tested on: Salmonella enteritidis; assay: MIC, serial dilution method (CLSI); type: cell-based; conditions: Salmonella enterica, ENTERITIDIS, 24 h; read-out: MIC
Experimental: as §1

[10] = tested on: Streptococcus equi; assay: MIC, serial dilution method (CLSI); type: cell-based; conditions: 24 h, read-out: MIC
Experimental: as §1

[11] = tested on: IPEC-J2 MDR1 cells; assay: Apical to basolateral transport across IPEC-J2 MDR1 cell monolayers; type: in vitro ADME
Experimental: To assess the permeability of the compounds, the apical to basolateral flux/permeability of different experimental compounds across monolayers of IPEC-J2 MDR1 cells seeded and cultured on Transwell supports was investigated.
The compounds were dissolved in ultra pure water (MilliQ) to a concentration of 1 mM and further diluted in HBSS supplemented with 0.05% BSA and 10 mM HEPES, pH 7.4 to a final concentration of 10 μM.
For transport experiments, IPEC-J2 cells were seeded onto to permeable supports (T12, Corning cci-3401) and cultured for 15-17 days. Culturemedium was changed every other day in both the apical and basolateral chamber. On the day of transport, the cells were equilibrated to ambient temperatures and the transepithelial electrical resistance (TEER) was measured across the cell monolayers. Subsequently, the cell layers were washed twice with HBSS and the TEER was measured again. The transport experiment was started by replacing the HBSS in the apical chamber with HBSS solutions of the four experimental compounds. Over a period of two hours samples of 100 μL where taken from the basolateral chamber at t=15, 30, 45, 60, 90 and 120 minutes. All samples were stored at −20° C. until analysis by means of HPLC-MS. All four compounds were tested in triplicate. After the transport study was stopped, the cell layers were washed twice with HBSS and the TEER was measured.

[12] = tested on: Cutibacterium acnes; assay: MIC and MBC determination; type: cell-based; conditions: Multiresistant clinical isolate
Experimental: (§2) MBC-value defines the antibiotic activities by the lowest concentration of the compound needed to kill at least 99.9% of the bacteria, also known as minimum bactericidal concentration (MBC) value.
(§3) The MIC for each compound for each bacteria strain was determined by the serial dilution method following the CLSI guidelines (CLSI Clinical and Laboratory Standards Institute: Performance Standards for Antimicrobial Susceptibility Testing: […] M100-S25. Wayne, Pa., USA; 2015.) All compounds were diluted in autoclaved H2O and stored at 4° C. […] Bacterial inoculums were prepared by inoculating 9 ml of H2O with bacterial colonies from agar plate (Oxoid, Roskilde Denmark) supplemented with bovine blood to a final yield a final density of 10^8 colony forming unit (CFU)/mL using a Sensititre™ Nephelometer (Thermo Scientific, Roskilde, Denmark). These inoculums were each in diluted 1:100 in Müller Hinton (MH) broth (Sigma, Copenhagen, Denmark). From the diluted inoculums 100 μl was transferred to each well in a 96-well plate and mixed with the compound to be MIC determined. The plate was incubated for 24 hours at 37° C. (without shaking). The MIC value was determined as the lowest concentration in which no bacterial growth could be visually detected. All MIC determinations were done in duplicates. […] Since all derivatives are new, no control strains (with reference MIC values) were available.

[13] = tested on: Staphylococcus epidermidis; assay: MIC and MBC determination; type: cell-based; conditions: Multiresistant clinical isolate
Experimental: as §2, §3

[14] = tested on: Staphylococcus aureus MRSA 43484; assay: Murine superficial MRSA skin infection model, topical treatment; type: in vivo; conditions: 2%, topical twice daily for 3 days, day 4, Balb/C mice
Experimental: This experiment is conducted to assess the effect of topical treatment of the compounds against MRSA. Compound S43 was evaluated for efficacy against Staphylococcus aureus MRSA 43484 in an murine skin infection model.
Treatment was performed twice daily for 3 days and sampling of skin biopsies was performed the day after last treatment. Treatment with Fucidic acid was included as a positive control and treatment with vehicle was included as a negative control.
48 Balb/C female mice—18-22 g—Taconic, Denmark, Staphylococcus aureus MRSA43484, Test compound A at 1 and 2% formulations, Test compound B at 2% formulation, Fucidin, 0.9% saline (sterile, SSI), 0.9% saline/Triton-x (sterile, SSI), Sterile water (SSI), 5% Horse Blood Agar plates (SSI), MRSA Brilliance agar plates, Nurofen® Junior (20 mg/ml, Novartis), Zoletil mix/Torbugesic (SSI/QC-BIO), Dermal curette—Miltex 335710.
Approximately 1 hour before inoculation, mice were treated orally with 45 μl nurofen (20 mg ibuprofen/ml corresponding to approximately […]) as pain relief. The mice were anaesthetized with 0.15 ml s.c. of Zoletil mix. The fur was removed from a 2×3-cm area on the back of each mouse by use of an electric shaver. Next, a razor was used to remove all the hair and hereafter the outer most layer of the skin was scraped off with a dermal curette to obtain a 1 cm^2 superficial skin lesion. 10 μl inoculum containing approximately 10^7 CFU was spread on the lesion. After the applied inoculum had dried, the mouse was placed in the cage and kept in a warming cabinet until fully awake.
Topical treatment of was initiated the day after inoculation, Day 1. Mice were treated twice daily (9 a.m and 3 p.m.) for three days. A volume of 50 μl was spread on the inoculated skin area.
Colony counts in the skin lesions were determined on day 1 (start of treatment) and day 4 (the day after completed treatment). The mice were sacrificed day 1 and 4 according to Table 1. The affected skin area was removed by a pair of scissors and tweezers, and collected in a tube for Dispomixer with 1 ml saline. The skin sample was homogenized in a Dispomixer. Each sample was serial diluted in saline/Triton-x and 20-μl spots were applied on MRSA Brillince agar plates. All agar plates were incubated 20-48 hrs at 35° C.

Row | Structure (SMILES) | MIC [1] [µg/mL] | MIC [2] [µg/mL] | MIC [3] [µg/mL] | MIC [4] [µg/mL] | MIC [5] [µg/mL] | MIC [6] [µg/mL] | MIC [7] [µg/mL] | MIC [8] [µg/mL] | MIC [9] [µg/mL] | MIC [10] [µg/mL] | permeability across IPEC-J2 MDR1 cell monolayers [11] | MBC [12] [µg/mL] | MIC [12] [µg/mL] | MBC [13] [µg/mL] | MIC [13] [µg/mL] | reduction of the CFU levels compared to the vehicle control [14] [logo]
1 | CCCCC[N+]1(C)CCCCC1CCN1c2ccccc2Sc2ccc(SC)cc21.[Br-] (centres unmarked) [Compound S28, 1-methyl-2-(2-(2-(methylthio)-10H-phenothiazin-10-yl)ethyl)-1-pentylpiperidin-1-ium bromide] | 2 | 2 | 4 | 64 | 4 | 2 | 2 | 2 | 64 | 2 | low | – | – | – | – | –
2 | CCCCCCCCCCCC[N+](C)(C)C(C)CN1c2ccccc2Sc2ccccc21.[Br-] (centres unmarked) [Compound S18, N-(1-(10H-phenothiazin-10-yl)propan-2-yl)-N,N-dimethyldodecan-1-aminium bromide] | 0.25 | 0.5 | 0.5 | 64 | 0.25 | 0.25 | 0.25 | 0.25 | 64 | 1 | – | 0.5 | 0.5 | 0.25 | 0.25 | –
3 | CC(=O)O[C@H]1C[C@@]2(C)[C@@H](C[C@@H](O)[C@H]3[C@@]4(C)CC[C@@H](O)[C@@H](C)[C@@H]4CC[C@@]32C)/C1=C(\CCC=C(C)C)C(=O)O [fucidic acid, reference compound] | – | – | – | – | – | – | – | – | – | – | – | – | – | – | – | 1.5
4 | CSc1ccc2c(c1)N(CCC1CCCC[N+]1(C)CCC(C)C)c1ccccc1S2.[Br-] (centres unmarked) [Compound S27, 1-isopentyl-1-methyl-2-(2-(2-(methylthio)-10H-phenothiazin-10-yl)ethyl)piperidin-1-ium bromide] | 2 | 2 | 4 | 128 | 2 | 4 | 4 | 2 | 128 | 2 | low | – | – | – | – | –
5 | CC(C)CC[N+](C)(C)CC/C=C1/c2ccccc2Sc2ccc(Cl)cc21.[Br-] [Compound S37, (Z)—N-(3-(2-chloro-9H-thioxanthen-9-ylidene)propyl)-N,N,3-trimethylbutan-1-aminium bromide] | 4 | 4 | 16 | 64 | 4 | 16 | 8 | 8 | 64 | 4 | – | – | – | – | – | –
